Patent US11952587B2, “Method for producing platelets” (KYOTO UNIVERSITY, priority 2017, dated 2024)

Experiments:
imMKCL [1] = test: HDAC6 inhibitor addition in shaking flask culture: number of platelets; assay type: cell-based, human; conditions: for number of platelets produced: added in a concentration of 100 nM or more to a medium
Experimental: After turning genes (c-MYC, BMI1, and BCL-XL) off, 1×10^5 cells/ml of imMKCL was seeded in a flask to carry out shaking flask culture using a platelet producing medium. The culture was carried out under the shaking conditions of 100 rpm, 37° C., and 5% CO2. To the platelet producing medium, BML-281 1 nM, 10 nM, or 100 nM, or Nexturastat A 20 nM was added as an HDAC6 inhibitor at the time of starting the culture. […] The number of platelets was measured on Day 6 after addition of these HDAC6 inhibitors.
(§1) After turning genes (c-MYC, BMI1, and BCL-XL) off, 1×10^5 cells/ml of imMKCL was seeded in a flask to carry out shaking flask culture using a platelet producing medium under a shaking condition of 100 rpm. Further, after turning genes (c-MYC, BMI1, and BCL-XL) off, 1×10^5 cells/ml of imMKCL was seeded in a culture dish to carry out static culture. For both shaking culture and static culture, BML-281 100 nM, or Nexturastat A 500 nM, 1 μM, or 2 μM was added at the time of starting the cultures. The number of platelets was measured on Day 6 from addition of these HDAC6 inhibitors. Additionally, Annexin V positive ratios of the obtained platelets were measured.
(§2) Subsequently, in order to examine in more detail which process in megakaryocyte maturation is affected by the HDAC6 inhibitor, the timing of adding Nexturastat A 2 μM during the flask culture was changed to Day 3, Day 4, and Day 5 from the start of the culture after the gene off and the effect on the amount of platelets to be produced was studied. Culture conditions other than the timing of adding HDAC6 inhibitors were the same as those in the experiment referring to FIGS. 21 to 24. […] In FIG. 24, panel (c), PPF was recognized at Day 5 in static culture. In view of this, the effect available at the time of shedding platelets (presumed mechanism) seems to be about 40%.

imMKCL [2] = test: HDAC6 inhibitor addition in static culture: cell morphology by microscope; assay type: cell-based, human; conditions: for degree of hypertrophy: versus DMSO group; for cell morphology (apoptosis, hypertrophy): Day 3 from gene off; for PPF associated with megakaryocyte maturation: Day 5 from gene off
Experimental: To confirm if apoptosis was caused due to the drug addition, cell morphology was observed when dimethyl sulfoxide (DMSO) was used as a solvent control of the drug or an HDAC6 inhibitor was added at the time of starting the culture in the platelet producing medium in a static culture under the same conditions as above. […] In the photograph, cell hypertrophy associated with megakaryocyte maturation is observed. […] PPF associated with megakaryocyte maturation is recognized. FIG. 24, panels (e) and (f) show cell morphology on Day 5 from the gene off static culture to which BML-281 100 nM was added and to which Nexturastat A 2 μM was added, respectively. […] Additionally, when an HDAC6 inhibitor was added, the degree of megakaryocyte maturation is rather hindered but proceeds to hypertrophy. Based on the above findings, HDAC6, seems to have role in the proplatelet formation.

HDAC6 = biological target: T1, HDAC6 (Homo sapiens, UniProt Q9UBN7); conditions: cited from earlier work
T1 sequence (Q9UBN7 1-1215): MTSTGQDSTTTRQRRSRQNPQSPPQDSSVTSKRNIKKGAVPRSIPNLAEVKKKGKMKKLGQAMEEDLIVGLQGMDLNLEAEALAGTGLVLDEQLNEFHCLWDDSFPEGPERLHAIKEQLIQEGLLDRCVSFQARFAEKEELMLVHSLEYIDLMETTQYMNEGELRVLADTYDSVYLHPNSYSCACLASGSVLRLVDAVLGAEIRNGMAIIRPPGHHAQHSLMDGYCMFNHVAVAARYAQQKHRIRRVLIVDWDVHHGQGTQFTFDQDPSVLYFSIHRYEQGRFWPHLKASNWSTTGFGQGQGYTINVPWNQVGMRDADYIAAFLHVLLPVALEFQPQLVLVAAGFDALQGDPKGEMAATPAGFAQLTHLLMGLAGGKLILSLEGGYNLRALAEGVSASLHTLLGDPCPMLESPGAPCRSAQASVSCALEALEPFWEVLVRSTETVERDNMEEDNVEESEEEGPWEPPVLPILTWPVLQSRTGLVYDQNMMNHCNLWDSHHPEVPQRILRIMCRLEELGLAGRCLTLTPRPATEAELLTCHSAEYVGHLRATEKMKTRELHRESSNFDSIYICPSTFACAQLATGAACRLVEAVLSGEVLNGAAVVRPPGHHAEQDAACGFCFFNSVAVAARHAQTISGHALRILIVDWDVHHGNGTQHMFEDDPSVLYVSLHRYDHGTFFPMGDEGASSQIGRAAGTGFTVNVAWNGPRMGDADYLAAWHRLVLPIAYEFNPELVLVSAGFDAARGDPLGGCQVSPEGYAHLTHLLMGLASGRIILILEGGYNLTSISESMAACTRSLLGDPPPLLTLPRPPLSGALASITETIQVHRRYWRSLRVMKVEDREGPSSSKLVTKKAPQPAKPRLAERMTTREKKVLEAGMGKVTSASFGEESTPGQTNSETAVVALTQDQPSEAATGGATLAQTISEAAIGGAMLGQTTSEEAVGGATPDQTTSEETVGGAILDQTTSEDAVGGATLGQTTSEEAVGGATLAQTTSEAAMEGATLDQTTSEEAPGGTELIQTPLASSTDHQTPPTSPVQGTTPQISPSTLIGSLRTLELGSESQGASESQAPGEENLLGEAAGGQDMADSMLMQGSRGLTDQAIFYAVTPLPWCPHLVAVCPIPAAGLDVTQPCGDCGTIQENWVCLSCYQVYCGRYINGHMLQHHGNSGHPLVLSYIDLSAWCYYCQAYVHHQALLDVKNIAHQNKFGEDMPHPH

imMKCL [3] = test: HDAC6 inhibitor addition in static culture (Dish): number of platelets; assay type: cell-based, human
Experimental: as §1, §2

Row | SMILES | number of platelets produced (imMKCL [1]) | platelet production (number of platelets on Day 6) (imMKCL [1]; shaking flask culture, 100 nM added at start of culture) | degree of hypertrophy (imMKCL [2]; Day 3, 100 nM) | cell morphology (apoptosis, hypertrophy) (imMKCL [2]; 100 nM) | PPF associated with megakaryocyte maturation (imMKCL [2]; 100 nM) | known HDAC inhibition (HDAC6) | number of platelets produced on Day 6, concentration dependence (imMKCL [1]; shaking flask culture, 500 nM, 1 μM, or 2 μM added at start) | platelet production (number of platelets on Day 6) (imMKCL [1]; shaking flask culture, 2 μM added) | platelet production (imMKCL [1]; shaking flask culture, 2 μM added on Day 0 or Days 3 and 4 after gene off) | platelet production (imMKCL [1]; shaking flask culture, 2 μM added on Day 5 after gene off) | reduction of number of platelets produced (imMKCL [3]; static culture (Dish), 2 μM added on Day 5) | number of platelets produced on Day 6, concentration dependence (imMKCL [3]; static culture, 500 nM, 1 μM, or 2 μM added at start) | degree of hypertrophy (imMKCL [2]; Day 3, 2 μM) | cell morphology (apoptosis, hypertrophy) (imMKCL [2]; 2 μM) | PPF associated with megakaryocyte maturation (imMKCL [2]; 2 μM)
1 | CC(C)(C)OC(=O)Nc1ccc(-c2cc(C(=O)NCCCCCCC(=O)NO)no2)cc1 [BML-281, N-Hydroxy-7-[5-(4-tertbutoxycarbonylaminophenyl)-3-isoxazolecarboxamido]heptanamide] | considerably suppress the number of platelets produced | notable reduction in the platelet production | slightly lower than the group containing DMSO | Apoptosis is not recognized but cell hypertrophy is recognized | not recognized | inhibit HDAC6, 1, 2, 7, 8, and 10 |  |  |  |  |  |  |  |  | 
2 | CCCCN(Cc1ccc(C(=O)NO)cc1)C(=O)Nc1ccccc1 [Nexturastat A, 4-[[Butyl[(phenylamino)carbonyl]amino]methyl]-N-hydroxybenzamide] | considerably suppress the number of platelets produced |  |  |  |  | specifically inhibit HDAC6 | decreases in an inhibitor concentration-dependent manner | notable reduction in the platelet production | notable reduction in the platelet production | production equivalent to that in non-addition group | about 40% | decreases in an inhibitor concentration-dependent manner | slightly lower than the group containing DMSO | Apoptosis was not recognized but cell hypertrophy was observed | not recognized
